Legend:
[1] = molecular target: RET (Homo sapiens, UniProt P07949); experiment: Kinase inhibition profile; assay type: biochemical; conditions: 200 nM; read-out: inhibitory activity
Method: (§1) The preparation of CT327 and the reference compounds was conducted following a similar procedure. CT327 also was tested at a concentration of 200 nM.
(§2) The inhibitory activity of CT327 against the tested tyrosine kinase and serine/threonine kinases is shown in the Table a and b, respectively, reported in FIG. 9b.

[2] = molecular target: FGR (Homo sapiens, UniProt P09769); experiment: Kinase inhibition profile; assay type: biochemical; conditions: 200 nM; read-out: inhibitory activity
Method: as §1, §2

[3] = molecular target: CHK2 (Homo sapiens, UniProt O96017); experiment: Kinase inhibition profile; assay type: biochemical; conditions: 200 nM; read-out: inhibitory activity
Method: as §1, §2

[4] = molecular target: TYK2 (Homo sapiens, UniProt P29597); experiment: Kinase inhibition profile; assay type: biochemical; conditions: 200 nM; read-out: inhibitory activity
Method: as §1, §2

[5] = molecular target: JAK1 (Homo sapiens, UniProt P23458); experiment: Kinase inhibition profile; assay type: biochemical; conditions: 200 nM; read-out: inhibitory activity
Method: as §1, §2

[6] = molecular target: TrkC (Homo sapiens, UniProt Q16288); experiment: Kinase inhibition profile; assay type: biochemical; conditions: 200 nM; read-out: inhibitory activity
Method: as §1, §2

[7] = molecular target: PDGFRβ (Homo sapiens, UniProt P09619); experiment: Kinase inhibition profile; assay type: biochemical; conditions: 200 nM; read-out: inhibitory activity
Method: as §1, §2

[8] = molecular target: MER (Homo sapiens, UniProt Q12866); experiment: Kinase inhibition profile; assay type: biochemical; conditions: 200 nM; read-out: inhibitory activity
Method: as §1, §2

[9] = molecular target: MET (Homo sapiens, UniProt P08581); experiment: Kinase inhibition profile; assay type: biochemical; conditions: 200 nM; read-out: inhibitory activity
Method: as §1, §2

[10] = molecular target: JNK1 (Homo sapiens, UniProt P45983); experiment: Kinase inhibition profile; assay type: biochemical; conditions: 200 nM; read-out: inhibitory activity
Method: as §1, §2

[11] = molecular target: KIT (Homo sapiens, UniProt P10721); experiment: Kinase inhibition profile; assay type: biochemical; conditions: 200 nM; read-out: inhibitory activity
Method: as §1, §2

[12] = molecular target: AurA (Homo sapiens, UniProt O14965); experiment: Kinase inhibition profile; assay type: biochemical; conditions: 200 nM; read-out: inhibitory activity
Method: as §1, §2

[13] = molecular target: TNK1 (Homo sapiens, UniProt Q13470); experiment: Kinase inhibition profile; assay type: biochemical; conditions: 200 nM; read-out: inhibitory activity
Method: as §1, §2

[14] = molecular target: CaMK2a (Homo sapiens, UniProt Q9UQM7); experiment: Kinase inhibition profile; assay type: biochemical; conditions: 200 nM; read-out: inhibitory activity
Method: as §1, §2

[15] = molecular target: JAK2 (Homo sapiens, UniProt O60674); experiment: Kinase inhibition profile; assay type: biochemical; conditions: 200 nM; read-out: inhibitory activity
Method: as §1, §2

[16] = molecular target: BLK (Homo sapiens, UniProt P51451); experiment: Kinase inhibition profile; assay type: biochemical; conditions: 200 nM; read-out: inhibitory activity
Method: as §1, §2

[17] = molecular target: JAK3 (Homo sapiens, UniProt P52333); experiment: Kinase inhibition profile; assay type: biochemical; conditions: 200 nM; read-out: inhibitory activity
Method: as §1, §2

[18] = molecular target: PDGFRα (Homo sapiens, UniProt P16234); experiment: Kinase inhibition profile; assay type: biochemical; conditions: 200 nM; read-out: inhibitory activity
Method: as §1, §2

[19] = molecular target: TrkB (Homo sapiens, UniProt Q16620); experiment: Kinase inhibition profile; assay type: biochemical; conditions: 200 nM; read-out: inhibitory activity
Method: as §1, §2

[20] = molecular target: CHK1 (Homo sapiens, UniProt O14757); experiment: Kinase inhibition profile; assay type: biochemical; conditions: 200 nM; read-out: inhibitory activity
Method: as §1, §2

[21] = molecular target: JNK2 (Homo sapiens, UniProt P45984); experiment: Kinase inhibition profile; assay type: biochemical; conditions: 200 nM; read-out: inhibitory activity
Method: as §1, §2

[22] = molecular target: FLT3 (Homo sapiens, UniProt P36888); experiment: Kinase inhibition profile; assay type: biochemical; conditions: 200 nM; read-out: inhibitory activity
Method: as §1, §2

[23] = Dermal absorption study in mice of K-252a versus K-252a-PEG; assay type: in vivo; conditions: male, Balb/C, mouse, plasma, topical, 3 mg/kg dermal
Method: The experiment was performed using a dose of active agent in both preparation of 3 mg/kg. For the present study, three subsequent experiments have been performed in vivo using each time 6 Balb/C male mice purchased from Charles River (Calco, Italy). The mice were subdivided in the following experimental groups (two animals per group): • Group 1: The mice were treated with 3 mg/kg of K-252-a, by dermal administration and sacrificed after 30 minutes. • Group 2: The mice were treated with 3 mg/kg of K-252-a by dermal administration and sacrificed after 60 minutes. • Group 3: The mice were treated with 3 mg/kg of K-252-a-PEG(2K) of Example 1 by dermal administration and sacrificed after 60 minutes.
The oil-based preparations are in form of emulsions which are rendered homogeneous by repeated sonication. […] The applied emulsion was gently massaged on the back of the mice to favor the absorption. The mice were then sacrificed respectively after 30 or 60 minutes under ether anaesthesia and the blood was collected from the ventral aorta with the insulin syringe (approx. 1 mL/animal). […] The blood samples were then centrifugated at 2000 g for 5 minutes in a refrigerated (4° C.) centrifuge, purified by solid phase extraction (SPE) and subsequently analyzed through HPLC quantitative analysis (RT-HPLC analysis with)(Terra C18 column, eluent water/ACN). […]

[24] = test system: protein kinase C (PKC); conditions: cited from earlier work

MET, sequence (P08581 25-1390): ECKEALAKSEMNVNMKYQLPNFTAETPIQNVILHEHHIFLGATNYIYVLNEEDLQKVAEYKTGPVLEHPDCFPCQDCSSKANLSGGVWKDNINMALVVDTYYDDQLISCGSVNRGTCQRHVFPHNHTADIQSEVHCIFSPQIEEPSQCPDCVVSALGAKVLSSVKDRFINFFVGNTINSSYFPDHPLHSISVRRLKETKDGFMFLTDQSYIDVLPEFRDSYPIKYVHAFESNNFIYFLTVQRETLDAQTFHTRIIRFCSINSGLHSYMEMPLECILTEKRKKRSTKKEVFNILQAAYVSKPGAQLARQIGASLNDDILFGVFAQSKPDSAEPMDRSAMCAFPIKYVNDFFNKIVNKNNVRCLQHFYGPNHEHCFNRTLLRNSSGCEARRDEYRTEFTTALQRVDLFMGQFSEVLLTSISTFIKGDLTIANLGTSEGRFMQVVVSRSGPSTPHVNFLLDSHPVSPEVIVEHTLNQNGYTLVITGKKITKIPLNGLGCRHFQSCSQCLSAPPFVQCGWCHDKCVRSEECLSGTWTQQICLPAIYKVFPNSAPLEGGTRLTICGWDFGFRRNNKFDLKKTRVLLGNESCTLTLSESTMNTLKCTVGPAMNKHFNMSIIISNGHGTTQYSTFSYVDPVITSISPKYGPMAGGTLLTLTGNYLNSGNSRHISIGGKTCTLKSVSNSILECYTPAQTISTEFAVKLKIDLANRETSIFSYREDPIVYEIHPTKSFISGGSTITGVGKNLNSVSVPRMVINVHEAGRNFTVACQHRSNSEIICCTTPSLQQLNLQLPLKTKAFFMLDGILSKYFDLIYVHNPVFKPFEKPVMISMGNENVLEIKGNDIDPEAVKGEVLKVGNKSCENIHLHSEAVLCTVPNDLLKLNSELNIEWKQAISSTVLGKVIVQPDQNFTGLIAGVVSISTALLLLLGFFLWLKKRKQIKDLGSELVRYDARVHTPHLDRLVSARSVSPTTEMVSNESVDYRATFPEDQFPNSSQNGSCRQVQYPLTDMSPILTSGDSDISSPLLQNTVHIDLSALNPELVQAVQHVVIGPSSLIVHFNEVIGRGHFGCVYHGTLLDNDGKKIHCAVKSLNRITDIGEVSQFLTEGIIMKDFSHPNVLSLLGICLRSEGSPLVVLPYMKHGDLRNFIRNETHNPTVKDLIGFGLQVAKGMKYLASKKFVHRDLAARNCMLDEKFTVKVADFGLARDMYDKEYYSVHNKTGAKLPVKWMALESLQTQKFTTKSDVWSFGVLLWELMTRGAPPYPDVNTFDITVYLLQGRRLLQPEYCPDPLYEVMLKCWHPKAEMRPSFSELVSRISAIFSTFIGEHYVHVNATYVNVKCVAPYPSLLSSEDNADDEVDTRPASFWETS
BLK, sequence (P51451 whole entry, species assumed): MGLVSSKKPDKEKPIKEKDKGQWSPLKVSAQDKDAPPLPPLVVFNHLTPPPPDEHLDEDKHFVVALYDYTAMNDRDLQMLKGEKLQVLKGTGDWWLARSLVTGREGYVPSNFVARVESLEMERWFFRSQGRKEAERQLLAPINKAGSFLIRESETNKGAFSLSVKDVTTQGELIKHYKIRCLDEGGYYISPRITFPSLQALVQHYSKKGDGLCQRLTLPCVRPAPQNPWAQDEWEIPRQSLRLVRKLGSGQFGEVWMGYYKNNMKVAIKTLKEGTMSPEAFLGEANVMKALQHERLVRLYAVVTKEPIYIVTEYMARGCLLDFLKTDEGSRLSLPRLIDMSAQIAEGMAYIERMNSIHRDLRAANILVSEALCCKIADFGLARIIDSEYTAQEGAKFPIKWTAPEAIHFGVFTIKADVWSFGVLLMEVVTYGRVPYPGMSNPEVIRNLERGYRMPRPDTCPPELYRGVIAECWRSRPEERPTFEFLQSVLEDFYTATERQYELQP
MER, sequence (Q12866 21-999): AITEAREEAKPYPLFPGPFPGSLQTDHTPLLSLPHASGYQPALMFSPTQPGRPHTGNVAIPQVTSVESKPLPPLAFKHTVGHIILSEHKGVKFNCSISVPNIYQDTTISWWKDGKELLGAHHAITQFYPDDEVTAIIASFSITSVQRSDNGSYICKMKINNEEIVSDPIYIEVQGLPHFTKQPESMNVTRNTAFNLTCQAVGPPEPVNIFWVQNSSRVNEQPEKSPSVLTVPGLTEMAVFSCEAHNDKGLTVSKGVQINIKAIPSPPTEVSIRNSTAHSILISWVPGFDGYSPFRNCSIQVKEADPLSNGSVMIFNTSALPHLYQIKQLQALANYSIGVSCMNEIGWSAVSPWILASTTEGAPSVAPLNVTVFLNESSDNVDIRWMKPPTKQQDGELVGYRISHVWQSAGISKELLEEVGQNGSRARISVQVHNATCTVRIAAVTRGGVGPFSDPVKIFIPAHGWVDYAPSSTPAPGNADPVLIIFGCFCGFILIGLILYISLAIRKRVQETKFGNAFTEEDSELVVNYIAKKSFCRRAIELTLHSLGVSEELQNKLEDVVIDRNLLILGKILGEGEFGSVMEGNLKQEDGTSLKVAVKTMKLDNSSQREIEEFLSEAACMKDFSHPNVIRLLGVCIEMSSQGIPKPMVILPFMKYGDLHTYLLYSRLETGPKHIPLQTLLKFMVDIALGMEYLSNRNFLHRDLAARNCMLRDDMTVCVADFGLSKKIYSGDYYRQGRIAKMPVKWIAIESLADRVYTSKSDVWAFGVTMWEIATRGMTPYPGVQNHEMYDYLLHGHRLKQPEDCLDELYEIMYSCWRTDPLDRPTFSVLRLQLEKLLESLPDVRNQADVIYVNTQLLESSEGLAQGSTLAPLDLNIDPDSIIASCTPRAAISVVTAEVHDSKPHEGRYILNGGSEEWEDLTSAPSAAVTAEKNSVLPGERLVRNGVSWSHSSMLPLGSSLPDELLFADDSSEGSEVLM
JAK1, sequence (P23458 whole entry, species assumed): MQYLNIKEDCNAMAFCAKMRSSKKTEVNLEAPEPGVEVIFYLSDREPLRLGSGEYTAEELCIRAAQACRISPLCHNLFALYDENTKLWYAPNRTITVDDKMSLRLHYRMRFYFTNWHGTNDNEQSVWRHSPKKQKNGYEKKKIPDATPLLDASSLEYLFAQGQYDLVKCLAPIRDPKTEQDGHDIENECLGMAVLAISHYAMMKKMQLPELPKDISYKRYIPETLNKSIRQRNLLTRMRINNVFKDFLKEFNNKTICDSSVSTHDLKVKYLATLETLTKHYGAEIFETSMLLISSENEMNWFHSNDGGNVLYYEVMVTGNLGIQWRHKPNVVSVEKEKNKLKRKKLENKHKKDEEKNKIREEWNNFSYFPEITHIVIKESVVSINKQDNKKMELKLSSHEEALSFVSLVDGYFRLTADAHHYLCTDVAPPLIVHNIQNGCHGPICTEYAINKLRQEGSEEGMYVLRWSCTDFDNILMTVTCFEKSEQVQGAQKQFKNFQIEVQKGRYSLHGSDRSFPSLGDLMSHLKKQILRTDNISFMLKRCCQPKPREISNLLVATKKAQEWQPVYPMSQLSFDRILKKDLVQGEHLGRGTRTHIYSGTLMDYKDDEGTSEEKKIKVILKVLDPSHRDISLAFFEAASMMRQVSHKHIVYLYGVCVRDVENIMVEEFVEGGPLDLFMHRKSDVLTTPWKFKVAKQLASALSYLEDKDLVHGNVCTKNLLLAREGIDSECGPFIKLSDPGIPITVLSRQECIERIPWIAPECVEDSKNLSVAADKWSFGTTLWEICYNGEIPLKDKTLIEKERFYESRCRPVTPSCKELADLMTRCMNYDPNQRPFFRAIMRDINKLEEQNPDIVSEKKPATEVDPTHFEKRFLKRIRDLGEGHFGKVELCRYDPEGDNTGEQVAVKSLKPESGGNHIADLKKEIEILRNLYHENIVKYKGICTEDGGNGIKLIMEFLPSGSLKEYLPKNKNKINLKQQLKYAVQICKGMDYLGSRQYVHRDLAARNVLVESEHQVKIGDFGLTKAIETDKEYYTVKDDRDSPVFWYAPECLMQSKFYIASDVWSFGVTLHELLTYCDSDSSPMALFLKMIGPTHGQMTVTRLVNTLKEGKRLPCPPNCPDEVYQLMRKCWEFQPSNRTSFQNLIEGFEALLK
PDGFRβ, sequence (P09619 33-1106, species assumed): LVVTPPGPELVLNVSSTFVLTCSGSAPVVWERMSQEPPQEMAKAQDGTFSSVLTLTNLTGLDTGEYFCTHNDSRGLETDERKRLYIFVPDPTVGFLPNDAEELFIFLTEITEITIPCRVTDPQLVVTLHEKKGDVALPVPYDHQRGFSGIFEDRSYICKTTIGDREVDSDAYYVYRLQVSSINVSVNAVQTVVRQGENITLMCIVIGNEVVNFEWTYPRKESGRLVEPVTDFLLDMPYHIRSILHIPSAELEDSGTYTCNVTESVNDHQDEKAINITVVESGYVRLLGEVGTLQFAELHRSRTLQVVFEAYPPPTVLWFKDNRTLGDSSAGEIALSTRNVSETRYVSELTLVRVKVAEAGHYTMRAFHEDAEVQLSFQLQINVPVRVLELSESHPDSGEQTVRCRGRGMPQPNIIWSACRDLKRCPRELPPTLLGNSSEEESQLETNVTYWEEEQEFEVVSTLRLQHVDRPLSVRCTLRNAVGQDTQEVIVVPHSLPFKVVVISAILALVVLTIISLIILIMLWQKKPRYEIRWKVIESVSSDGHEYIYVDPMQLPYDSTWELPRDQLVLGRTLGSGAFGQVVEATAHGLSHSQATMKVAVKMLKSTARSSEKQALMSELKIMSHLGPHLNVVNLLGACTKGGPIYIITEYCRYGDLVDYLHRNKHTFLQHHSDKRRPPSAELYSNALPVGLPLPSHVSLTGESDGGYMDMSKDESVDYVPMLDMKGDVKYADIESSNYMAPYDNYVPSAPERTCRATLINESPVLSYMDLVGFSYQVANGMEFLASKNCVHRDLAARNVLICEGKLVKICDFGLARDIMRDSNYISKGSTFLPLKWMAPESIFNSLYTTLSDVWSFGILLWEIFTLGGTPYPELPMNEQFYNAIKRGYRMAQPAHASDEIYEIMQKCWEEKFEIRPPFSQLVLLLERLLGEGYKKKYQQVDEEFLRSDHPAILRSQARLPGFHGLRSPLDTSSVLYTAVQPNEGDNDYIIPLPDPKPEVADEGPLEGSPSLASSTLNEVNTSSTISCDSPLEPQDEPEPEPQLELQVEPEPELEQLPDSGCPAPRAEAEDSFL

COC(=O)[C@]1(O)C[C@@H]2O[C@@]1(C)n1c3ccccc3c3c4c(c5c6ccccc6n2c5c31)C(=O)NC4 [Compound K-252a, K-252a]
inhibition at 0.2 µM [1]: > 90%
inhibition at 0.2 µM [2]: 80 to 90%
inhibition at 0.2 µM [3]: > 90%
inhibition at 0.2 µM [4]: > 90%
inhibition at 0.2 µM [5]: 80 to 90%
inhibition at 0.2 µM [6]: > 90%
inhibition at 0.2 µM [7]: > 90%
inhibition at 0.2 µM [8]: 80 to 90%
inhibition at 0.2 µM [9]: 80 to 90%
inhibition at 0.2 µM [10]: > 90%
inhibition at 0.2 µM [11]: 80 to 90%
inhibition at 0.2 µM [12]: > 90%
inhibition at 0.2 µM [13]: > 90%
inhibition at 0.2 µM [14]: 80 to 90%
inhibition at 0.2 µM [15]: > 90%
inhibition at 0.2 µM [16]: 80 to 90%
inhibition at 0.2 µM [17]: > 90%
inhibition at 0.2 µM [18]: > 90%
inhibition at 0.2 µM [19]: > 90%
inhibition at 0.2 µM [20]: > 90%
inhibition at 0.2 µM [21]: > 90%
inhibition at 0.2 µM [22]: > 90%
concentration at 30 min ([23]; sacrificed after 30 minutes): 23.3 ng/mL
concentration at 60 min ([23]; sacrificed after 60 minutes): 42.1 ng/mL
inhibition of protein kinase C [24]: strongly inhibits

From patent US8673347B2 (Creabilis Therapeutics S.p.A., priority 2005, dated 2014)
